Design in all cases: dose 10 mg/kg, route oral
For data set [1], the system named is Homo sapiens. Nature of the data set: AUC in children with uncomplicated malaria assessed as desethylamodiaquine at 10 mg/kg, po administered as single dose. Format: ADME, organism-based, Plasma. Conditions: in vivo.
The test system of data set [2] is Homo sapiens. Nature of the data set: Tmax in children with uncomplicated malaria assessed as desethylamodiaquine at 10 mg/kg, po administered as single dose. Format: ADME, organism-based. Conditions: in vivo.
In data set [3] the test system is Homo sapiens. Nature of the data set: Cmax in children with uncomplicated malaria assessed as desethylamodiaquine at 10 mg/kg, po administered as single dose. Format: ADME, organism-based. The settings on record: in vivo.
Data set [4] concerns Homo sapiens. Nature of the data set: Toxicity in children with uncomplicated malaria assessed as bradycardia at 10 mg/kg, po administered as single dose. Format: organism-based. The settings on record: in vivo.
Data set [5] has as its system Homo sapiens. Nature of the data set: Toxicity in children with uncomplicated malaria assessed as elevated serum aminotransferase levels at 10 mg/kg, po administered as single dose. The class given is organism-based. The settings on record: in vivo.
The subject of data set [6] is Homo sapiens. Nature of the data set: Toxicity in children with uncomplicated malaria assessed as neutropenia at 10 mg/kg, po administered as single dose. Format: organism-based. Conditions: in vivo.
The next data set concerns Plasma. Nature of the data set: Plasma concentration in children with uncomplicated malaria assessed as desethylamodiaquine at 10 mg/kg, po administered as single dose measured on day 3. The settings on record: human, in vivo. The class given is ADME, organism-based.
Data set [7] has as its system Homo sapiens. Nature of the data set: Toxicity in children with uncomplicated malaria assessed as pruritus at 10 mg/kg, po administered as single dose. Conditions: in vivo. The class given is organism-based.
The subject of data set [8] is Homo sapiens. Nature of the data set: Toxicity in children with uncomplicated malaria assessed as excessive sleepiness at 10 mg/kg, po administered as single dose. Format: organism-based. Conditions: in vivo.

Here are results for two compounds from ChEMBL document CHEMBL1649114, “Effect of concomitant artesunate administration and cytochrome P4502C8 polymorphisms on the pharmacokinetics of amodiaquine in Ghanaian children with uncomplicated malaria” (Antimicrob Agents Chemother, 2008).

The structures appear in SMILES notation.

The AUC is the area under the concentration-time curve, a measure of exposure. The term Tmax denotes the time at which the peak concentration occurs. The term Cmax denotes the maximum level reached in the sampled fluid or tissue.

Consider `CCN(CC)Cc1cc(Nc2ccnc3cc(Cl)ccc23)ccc1O.Cl`, for which the area under the curve (AUC) in the data set with Homo sapiens [1] was determined as 38516 ng·h/mL. Also, the Tmax in the data set on Homo sapiens [2] turned out to be 47.9 h. Further, the Cmax in the data set with Homo sapiens [3] is 1185 ng/mL.
For `CCNCc1cc(Nc2ccnc3cc(Cl)ccc23)ccc1O` [DESETHYL AMODIAQUINE], the Activity result in the data set on Homo sapiens [4] was “Toxic”; in the data set with Homo sapiens [5] it was “Toxic”; in the data set on Homo sapiens [6], “Toxic”; in the data set with Plasma, 156.6 ng/mL; with Homo sapiens [7] it was “Toxic”; in the data set on Homo sapiens [8], “Toxic”.
